According to patent US20240342135A1, “USE OF NITRATE AND VITAMIN C MICROCAPSULE FOR TREATING SICCA SYNDROME” (CAPITAL MEDICAL UNIVERSITY, priority 2021, published 2024):
Marks after values point to notes of the source that are not given here.

Legend:
NOD/Itj mice [1] = assay: Salivary flow rate of NOD/Itj mice (animal model of SS); format: in vivo; details: for effect on salivary flow rate of NOD/Itj mice (in words): gastric gavage; for Salivary flow rate (mean value ± SD): NOD/Itj mice, gastric gavage from 8th week, microcapsules 0.4 mmol/kg NO3−, NaNO3 0.4 mmol/kg, Vc 2 mmol/kg
Description: Therefore, the NOD/Itj mouse can be used as an animal model of SS. Subsequently, the microcapsules of the present invention were administered by gastric gavage, the saliva flow rate was monitored, and the experimental samples were collected at the 12th week to observe the prophylactic and therapeutic effects of the microcapsules of the present invention on SS.
After proper anaesthesia, the mice were injected I.P. with pilocarpine nitrate in aseptic normal saline at a concentration of 0.4 mg/ml and a dosage of 0.5 mg/100 g b.w. After the injection, the mice were laid on a 20° inclined mouse board on prone position, with the head slightly inclined downward, so that the head was in a slightly lower position. About 5 minutes after the injection, after the first drop of saliva from the mouth of the mouse, after 5 minutes, the time was recorded and the saliva was collected, and the amount of saliva was collected for 20 minutes (the amount of saliva is detected by inserting a small sterile cotton ball with known weight under the tongue of mouse, and weighing cotton ball 20 minutes later).
(§1) Saliva flow rate was measured […].

NOD/Itj mice [2] = assay: Lymphocyte infiltration in submandibular gland of NOD/Itj mice (HE staining, Image J); format: in vivo; details: 14th week, gastric gavage from 8th week, microcapsules 0.4 mmol/kg NO3−, NaNO3 0.4 mmol/kg, Vc 2 mmol/kg
Description: The salivary flow rate was measured every two weeks from the 8th week after birth, and the saliva was collected. At the same time, the submandibular gland samples were collected and stained with HE for histological observation, and the degree of lymphocyte infiltration was analyzed by Image J.
After the experimental animals were sacrificed, they were placed on supine position, disinfected, and the neck was incised to dissect the submandibular gland completely. The tissues were washed with PBS, cut into 0.2 cmx 0.2 cm, and fixed in 4% paraformaldehyde (pH 7.2) at 4° C. for 24-48 h. After dehydration, wax impregnation and embedding, the tissues were sectioned at a thickness of 4 μm and baked, followed by hematoxylin and eosin (HE) staining. The remaining fresh samples were placed in a refrigerator at −80° C.
as §1

[3] = In vivo test: nitrate content in the blood of mice after single gastric gavage; details: 2 mmol/kg sodium nitrate, once
Description: Blood was collected from vena caudalis at 0 h, and 2, 4, 6, 12, and 24 h after gastric gavage, respectively.

[4] = after oral administration; cited from earlier work

Structure (SMILES)	effect on salivary flow rate of NOD/Itj mice (in words) (NOD/Itj mice [1])	Salivary flow rate (mean value ± SD) (NOD/Itj mice [1]; week 8) [g/10 min]	Salivary flow rate (mean value ± SD) (NOD/Itj mice [1]; week 9) [g/10 min]	Salivary flow rate (mean value ± SD) (NOD/Itj mice [1]; week 10) [g/10 min]	Salivary flow rate (mean value ± SD) (NOD/Itj mice [1]; week 11) [g/10 min]	Salivary flow rate (mean value ± SD) (NOD/Itj mice [1]; week 12) [g/10 min]	Salivary flow rate (mean value ± SD) (NOD/Itj mice [1]; week 13) [g/10 min]	Salivary flow rate (mean value ± SD) (NOD/Itj mice [1]; week 14) [g/10 min]	Infiltration area of the submandibular gland (NOD/Itj mice [2])	Nitrate content in the blood of the mice after single administration ([3]; 0 h) [µmol/L]	Nitrate content in the blood of the mice after single administration ([3]; 2 h) [µmol/L]	Nitrate content in the blood of the mice after single administration ([3]; 4 h) [µmol/L]	Nitrate content in the blood of the mice after single administration ([3]; 6 h) [µmol/L]	Nitrate content in the blood of the mice after single administration ([3]; 12 h) [µmol/L]	Nitrate content in the blood of the mice after single administration ([3]; 24 h) [µmol/L]	half-life in vivo [4] [h]
O=[N+]([O-])[O-].[Na+] [NaNO3, sodium nitrate]	no obvious influence	0.078 ± 0.011	0.068 ± 0.006	0.060 ± 0.004	0.057 ± 0.004	0.061 ± 0.009	0.062 ± 0.007	0.059 ± 0.009	4.42 ± 0.54^b %	41.8	1052.8	572.4	297.4	45.3	32.7	
O=C1O[C@H]([C@@H](O)CO)C(O)=C1O [Vc, vitamin C]	no obvious influence	0.077 ± 0.012	0.063 ± 0.008	0.049 ± 0.007	0.041 ± 0.008	0.038 ± 0.006	0.035 ± 0.008	0.034 ± 0.007	5.16 ± 0.58%							2
